According to PubChem BioAssay (NCI):
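Test compounds were applied to cells in 96-well plates for 48 hours at 5 doses. TGI is the concentration that stops growth completely.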

How the values were obtained:
Assay in all cases: NCI-60 cell line screen, 48 h
CAKI-1 renal = tested on: CAKI-1 renal
CCRF-CEM leukemia = tested on: CCRF-CEM leukemia
HOP-62 NSCLC = tested on: HOP-62 NSCLC
IGROV1 ovarian = tested on: IGROV1 ovarian
K-562 leukemia = tested on: K-562 leukemia
MALME-3M melanoma = tested on: MALME-3M melanoma
MOLT-4 leukemia = tested on: MOLT-4 leukemia
NCI-H23 lung = tested on: NCI-H23 lung
NCI-H460 lung = tested on: NCI-H460 lung
OVCAR-3 ovarian = tested on: OVCAR-3 ovarian
OVCAR-4 ovarian = tested on: OVCAR-4 ovarian
OVCAR-8 ovarian = tested on: OVCAR-8 ovarian
RPMI-8226 leukemia = tested on: RPMI-8226 leukemia
RXF 393 renal = tested on: RXF 393 renal
SF-295 CNS = tested on: SF-295 CNS
SN12C renal = tested on: SN12C renal
SNB-19 CNS = tested on: SNB-19 CNS
U251 CNS = tested on: U251 CNS
UACC-62 melanoma = tested on: UACC-62 melanoma
UO-31 renal = tested on: UO-31 renal

With O=C1C[C@H](c2ccccc2)C2(C(=O)c3ccccc3C2=O)[C@@H](c2ccccc2)C1 the TGI (CAKI-1 renal) was > 100 µM, the TGI (CCRF-CEM leukemia) was > 100 µM and the TGI (HOP-62 NSCLC) was > 100 µM. For the same compound, the TGI (IGROV1 ovarian) was > 100 µM, the TGI (K-562 leukemia) was > 100 µM and the TGI (MALME-3M melanoma) was > 100 µM. The TGI (MOLT-4 leukemia) was > 100 µM, the TGI (NCI-H23 lung) was > 100 µM and the TGI (NCI-H460 lung) was > 100 µM. The TGI (OVCAR-3 ovarian) was > 100 µM, the TGI (OVCAR-4 ovarian) was > 100 µM and the TGI (OVCAR-8 ovarian) was > 100 µM. For the same compound, the TGI (RPMI-8226 leukemia) was > 100 µM, the TGI (RXF 393 renal) was > 100 µM and the TGI (SF-295 CNS) was > 100 µM. The TGI (SN12C renal) was > 100 µM, the TGI (SNB-19 CNS) was > 100 µM and the TGI (U251 CNS) was > 100 µM. For the same compound, the TGI (UACC-62 melanoma) was 26.7 µM and the TGI (UO-31 renal) was > 100 µM.

N#CSCC1COc2ccccc2O1 (stereo not given) was tested, and the TGI (CAKI-1 renal) was > 10 µM, the TGI (CCRF-CEM leukemia) was 8.3 µM and the TGI (HOP-62 NSCLC) was > 10 µM. For the same compound, the TGI (IGROV1 ovarian) was > 10 µM, the TGI (K-562 leukemia) was > 10 µM and the TGI (MALME-3M melanoma) was > 10 µM. The TGI (MOLT-4 leukemia) was > 10 µM, the TGI (NCI-H23 lung) was > 10 µM and the TGI (NCI-H460 lung) was > 10 µM. The TGI (OVCAR-3 ovarian) was > 10 µM, the TGI (OVCAR-4 ovarian) was > 10 µM and the TGI (OVCAR-8 ovarian) was > 10 µM. The TGI (RPMI-8226 leukemia) was > 10 µM, the TGI (RXF 393 renal) was > 10 µM and the TGI (SF-295 CNS) was > 10 µM. For the same compound, the TGI (SN12C renal) was > 10 µM, the TGI (SNB-19 CNS) was > 10 µM and the TGI (U251 CNS) was > 10 µM. The TGI (UACC-62 melanoma) was > 10 µM and the TGI (UO-31 renal) was > 10 µM.

For COc1ccc(C2C(C(=O)O)=C(COC(C)=O)Oc3cc4c(cc32)OCO4)cc1 (stereo not given), the TGI (CAKI-1 renal) was > 100 µM, the TGI (CCRF-CEM leukemia) was > 100 µM and the TGI (HOP-62 NSCLC) was > 100 µM. For the same compound, the TGI (IGROV1 ovarian) was > 100 µM, the TGI (K-562 leukemia) was > 100 µM and the TGI (MALME-3M melanoma) was > 100 µM. The TGI (MOLT-4 leukemia) was > 100 µM, the TGI (NCI-H23 lung) was > 100 µM and the TGI (NCI-H460 lung) was > 100 µM. The TGI (OVCAR-3 ovarian) was > 100 µM, the TGI (OVCAR-4 ovarian) was > 100 µM and the TGI (OVCAR-8 ovarian) was > 100 µM. The TGI (RPMI-8226 leukemia) was > 100 µM, the TGI (RXF 393 renal) was > 100 µM and the TGI (SF-295 CNS) was > 100 µM. The TGI (SN12C renal) was > 100 µM, the TGI (SNB-19 CNS) was > 100 µM and the TGI (U251 CNS) was > 100 µM. The TGI (UACC-62 melanoma) was > 100 µM and the TGI (UO-31 renal) was > 100 µM.
